One assay relates to human KRAS G12C mutated cell line MIA PaCa-2. Briefly: Inhibition of proliferation of MIA PaCa-2 cells (CellTiter-Glo, 7 day). It counts as cell-based. The conditions noted are these: 168 h, Table 3, 7 day, mean, read-out: MIA PaCa-2 IC50 (μM) 7 day Mean. From the text:
The present example evaluates the ability of compounds provided herein to inhibit proliferation of KRAS mutant cells.
The proliferation inhibitory effect was investigated in the human KRAS G12C mutated cell line MIA PaCa-2 (Yunis et al., 1977, Int. J. Cancer 19(1):128-135; ATCC catalog no. CRL-1420). Cells were maintained in RPMI-1640 medium (ThermoFisher catalog no. 61870036) supplemented with 10% of Heat Inactivated FBS (ThermoFisher catalog no. A31605) and 1% Pen-Strep (ThermoFisher catalog no. 10378016) and cultured at 37° C. in a humidified incubator with 5% CO2. Cell lines were grown by adhering to culture flasks, and the cells were maintained in a range 70%-80% confluency.
ATP is present in all metabolically active cells and is considered as a marker for cell viability and proliferation. Metabolic cell activity was determined using the CellTiter-Glo kit (Promega catalog no. G7572), an ATP monitoring system based on the production of luminescence by the reaction of ATP with added UltraGlo® recombinant luciferase (Kawano et al., 2016, PLOS One, 8; 11(7):e0158888), according to the supplier's experimental recommendations. The assay was based on a 96 well plate format.
Test compounds were dissolved at 10 mM in DMSO (Sigma catalog no. D8418; purity >99.9%) and stored at −20° C. Eight concentrations of test compound were assessed in duplicate in an individual test occasion in parallel in the selected cell lines. MRTX-849 and AMG-510 were used as reference compounds and tested in duplicate at eight concentrations. 100% of proliferation is represented by the untreated cells (0.2% DMSO).
On the day of the experiment (TO), cells were detached with TrypLE (ThermoFisher catalog no. 12604054) and quantified using the Vi-CELL XR Cell Viability (Beckman Coulter) analyzer and diluted with fresh medium to obtain the cell density of about 1000 cells per 200 μL medium. 200 μL of cell suspension were added into wells in the 96 well plate.
After 2 hours from seeding cells, compounds were added using a D300e compound dispenser (Tecan Trading AG) at desired concentrations with shaking between each compound dispensed. Cell plates containing 200 μL/well were incubated at 37° C. in a humidified incubator with 5% CO2.
On day T3, 150 μL of growth media per well were removed from plates containing the samples, 150 uL fresh growth media were added to each well, and fresh compounds were added using a D300e compound dispenser (Tecan Trading AG) at desired concentrations with shaking between each compound dispensed. Cell plates containing 200 uL/well were incubated at 37° C. in a humidified incubator with 5% CO2. On day T7 plates containing the samples were equilibrated at room temperature for approximately 15 min, and then 40 μL/well of the Promega CellTiterGlo® reagent was added. Contents were mixed for 30 minutes on an orbital shaker to induce cell lysis. Luminescence was read using a Synergy Neo 2 (Agilent Technologies.
Data was expressed as % of inhibition compared to the 0.2% DMSO negative control, and is calculated as follows: % inhibition=100−[(RLU sample)×100/(RLU controls*)], where * indicates the average for 0.2% DMSO. […]
On the day of the experiment (TO), cells were detached with TrypLE (ThermoFisher catalog no. 12604054), quantified using the Vi-CELL XR Cell Viability (Beckman Coulter) analyzer and resuspended in fresh medium at a cell density of about 1000 cells per 200 μL medium. 200 μL of cell suspension were added to each well of a 96 well plate.
Two hours after seeding cells, compounds were added at desired concentrations using a D300e compound dispenser (Tecan Trading AG) with shaking after each compound addition. Assay plates were incubated at 37° C. in a humidified incubator with 5% CO2.
On day 3 (T3) 150 μL of medium from assay plates were removed. 150 μL fresh medium and compounds were added at desired concentrations using a D300e compound dispenser (Tecan Trading AG) with shaking after each compound addition. […]
(In ATP-based viability assays light output follows the ATP content of the culture.)
The term IC50 denotes the concentration needed to halve the response being measured. On to `C=CC(=O)N1CCN(c2nc(OC[C@@]34CCCN3C[C@H](F)C4)nc3cc(-c4cc(O)cc(Cl)c4C4CC4)c(F)cc23)C2(CC2)C1` [Compound 316, 1-[4-[7-(3-chloro-2-cyclopropyl-5-hydroxy-phenyl)-6-fluoro-2-[[(2R,8S)-2-fluoro-1,2,3,5,6,7-hexahydropyrrolizin-8-yl]methoxy]quinazolin-4-yl]-4,7-diazaspiro[2.5]octan-7-yl]prop-2-en-1-one], for which the IC50 was > 1 µM.

For `C=CC(=O)N1CCN(c2nc(OC[C@@]34CCCN3C[C@H](F)C4)nc3cc(-c4cc(O)cc(Cl)c4C4CC4)cnc23)C2(CC2)C1` [Compound 319, 1-[4-[7-(3-chloro-2-cyclopropyl-5-hydroxy-phenyl)-2-[[(2R,8S)-2-fluoro-1,2,3,5,6,7-hexahydropyrrolizin-8-yl]methoxy]pyrido[3,2-d]pyrimidin-4-yl]-4,7-diazaspiro[2.5]octan-7-yl]prop-2-en-1-one], the IC50 is > 1 µM.

For `C=CC(=O)N1CCN(c2nc(OC[C@@]34CCCN3C[C@H](F)C4)nc3cc(-c4cccc5cccc(Cl)c45)c(F)cc23)C2(CC2)C1` [Compound 315], the IC50 is > 1 µM.

As for `C=CC(=O)N1CCC(c2nc(OC[C@@]34CCCN3C[C@H](F)C4)nc3c(F)c(-c4cc(O)cc5ccc(F)c(F)c45)ncc23)C[C@H]1C` (stereo in doubt) [Compound 334, 1-[(2R)-4-[7-(7,8-difluoro-3-hydroxy-1-naphthyl)-8-fluoro-2-[[(2R,8S)-2-fluoro-1,2,3,5,6,7-hexahydropyrrolizin-8-yl]methoxy]pyrido[4,3-d]pyrimidin-4-y1]-2-methyl-1-piperidyl]prop-2-en-1-one], the IC50 stood at 0.00443 µM.

With `C=CC(=O)N1CCC(c2nc(OC[C@@]34CCCN3C[C@H](F)C4)nc3c(F)c(-c4cc(O)cc5ccc(F)c(F)c45)ncc23)CC1` [Compound 330], the IC50 is 0.00664 µM.

The same assay, now with this note: 168 h, Table 4, 7 day, mean, read-out: MIA PaCa-2 IC50 (μM) 7 day Mean.
Consider `Oc1cccc(Cl)c1-c1cc(F)c2c(N3C[C@H]4C[C@@H]3CN4)nc(OC[C@@]34CCCN3C[C@H](F)C4)nc2c1` [Compound 418], for which the IC50 is > 1 µM.

On to `Oc1cc(-c2ncc3c(C4CCNCC4)nc(OC[C@@]45CCCN4C[C@H](F)C5)nc3c2F)c2c(F)c(F)ccc2c1` [Compound 435, 5,6-difluoro-4-[8-fluoro-2-[[(2R,8S)-2-fluoro-1,2,3,5,6,7-hexahydropyrrolizin-8-yl]methoxy]-4-(4-piperidyl)pyrido[4,3-d]pyrimidin-7-yl]naphthalen-2-ol], for which the IC50 is > 1 µM.

As for `Oc1cc(Cl)c(C2CC2)c(-c2ncc3c(C4CCNCC4)nc(OC[C@@]45CCCN4C[C@H](F)C5)nc3c2F)c1` [Compound 433], the IC50 was > 1 µM.

`C[C@@H]1CC(c2nc(OC[C@@]34CCCN3C[C@H](F)C4)nc3c(F)c(-c4cc(O)cc5ccc(F)c(F)c45)ncc23)CCN1` (stereo partly drawn) [Compound 440, 5,6-difluoro-4-[8-fluoro-2-[[(2R,8S)-2-fluoro-1,2,3,5,6,7-hexahydropyrrolizin-8-yl]methoxy]-4-[(2R)-2-methyl-4-piperidyl]pyrido[4,3-d]pyrimidin-7-yl]naphthalen-2-ol]: the IC50 stood at 3.65 µM.

For `CC1(c2nc(OC[C@@]34CCCN3C[C@H](F)C4)nc3c(F)c(-c4cc(O)cc(Cl)c4C4CC4)ncc23)CCNCC1` [Compound 442, 3-chloro-4-cyclopropyl-5-[8-fluoro-2-[[(2R,8S)-2-fluoro-1,2,3,5,6,7-hexahydropyrrolizin-8-yl]methoxy]-4-(4-methyl-4-piperidyl)pyrido[4,3-d]pyrimidin-7-yl]phenol], the IC50 came out at 8.87 µM.

Take `Oc1cc(Cl)c(C2CC2)c(-c2ccc3c(N4CCNC5(CC5)C4)nc(OC[C@@]45CCCN4C[C@H](F)C5)nc3c2F)c1` [Compound 409, 3-chloro-4-cyclopropyl-5-[4-(4,7-diazaspiro[2.5]octan-7-yl)-8-fluoro-2-[[(2R,8S)-2-fluoro-1,2,3,5,6,7-hexahydropyrrolizin-8-yl]methoxy]quinazolin-7-yl]phenol]: the IC50 was > 1 µM.

Turning to `OC1Cc2cccc(Cl)c2N(c2ncc3c(N4CC5CCC(C4)N5)nc(OC[C@@]45CCCN4C[C@H](F)C5)nc3c2F)C1` (stereo partly drawn) [Compound 432], the IC50 was > 1 µM.

(Values after patent publication US20240409558A1, “IRREVERSIBLE INHIBITORS OF KRAS” (BIOMEA FUSION, INC., priority 2021, published 2024).)
